Reference: patent publication US20140329863A1 (priority 2011, published 2014)
Where two headings read alike, the source gives them in different places.

Experiments:
[1] = tested on: PrP^Sc in dividing ScN2a-cl3 cells; type: cell-based, mouse; design: Dividing ELISA pEC50 (μM) 1st Expt. / Dividing ELISA pEC50 (μM) 2nd Expt. / Dividing ELISA pEC50 (μM) 3rd Expt. / Dividing ELISA pEC50 (μM) Mean: unit not given here
[2] = tested on: PrP^Sc in nondividing ScN2a-cl3 cells; type: cell-based, mouse; conditions: read-out: Non-Dividing ELISA EC50 (μM) Mean (n = 3); ScN2a-c13 non-dividing cells; mean n = 3
N2a-cl3 cells = assay: cells; conditions: Mus musculus, N2a-cl3, read-out: Dividing Calcein EC50 (μM) Mean (n = 3)
[3] = Hepatic microsomal stability, rat; conditions: […]
[4] = read-out: Dividing ELISA EC50 (μM) 1st Expt., ScN2a-cl3 dividing cells, 1st determination
[5] = read-out: Dividing ELISA EC50 (μM) 2nd Expt., ScN2a-cl3 dividing cells, 2nd determination
[6] = read-out: Dividing ELISA EC50 (μM) 3rd Expt., ScN2a-cl3 dividing cells, 3rd determination
[7] = read-out: Dividing ELISA EC50 (μM) Mean, ScN2a-cl3 dividing cells, mean of three determinations
[8] = ScN2a-cl3 dividing cells, 1st determination
[9] = ScN2a-cl3 dividing cells, 2nd determination
[10] = ScN2a-cl3 dividing cells, 3rd determination
[11] = ScN2a-cl3 dividing cells, mean of three determinations

| Structure (SMILES) | EC50 [1, 4] [µM] | EC50 [1, 5] [µM] | EC50 [1, 6] [µM] | EC50 [1, 7] [µM] | EC50 [2] [µM] | melting point [°C] | EC50 (N2a-cl3 cells) [µM] | Dividing ELISA pEC50 (μM) 1st Expt. [1, 8] | Dividing ELISA pEC50 (μM) 2nd Expt. [1, 9] | Dividing ELISA pEC50 (μM) 3rd Expt. [1, 10] | Dividing ELISA pEC50 (μM) Mean [1, 11] | EC50 ([1]; read-out: Antiprion activity ScN2a-cl3 EC50, ScN2a-cl3 cells) [µM] | Microsome stability T1/2 [3] [min] |
| --- | --- | --- | --- | --- | --- | --- | --- | --- | --- | --- | --- | --- | --- |
| Cc1ccc(Nc2nc(-c3ccccn3)cs2)nc1 [compound 24, (5-Methylpyridin-2-yl)-(4-pyridin-2-yl-thiazol-2-yl)-amine] | 1.62 | 0.507 | 0.449 | 0.86 | > 32 | 184 to 190 | 0.389 | – | – | – | – | – | – |
| Cc1ccc(Nc2nc(-c3ccccc3)cs2)nc1 [compound 25, (5-Methylpyridin-2-yl)-(4-phenylthiazol-2-yl)-amine] | 13 | 4.9 | 5.74 | 7.88 | > 32 | – | > 32 | 4.89 | 5.31 | 5.24 | 5.15 | 7.88 | 10 |
| Cc1ccc(Nc2nc(-c3ccc(-c4ccccn4)s3)cs2)nc1 [compound 26, (5-Methylpyridin-2-yl)-[4-(5-pyridin-2-yl-thiophen-2-yl)-thiazol-2-yl]-amine] | 1.58 | 0.879 | 1.22 | 1.23 | > 32 | 197 to 199 | > 32 | 5.80 | 6.06 | 5.91 | 5.92 | – | – |
| c1ccc(-c2csc(Nc3cc4ccccc4cn3)n2)cc1 [compound 33, Isoquinolin-3-yl-(4-phenylthiazol-2-yl)-amine] | 2.06 | 2.85 | 4.32 | 3.08 | > 32 | 265 to 267 | > 32 | 5.69 | 5.55 | 5.37 | 5.53 | – | – |
| c1ccc(-c2ccc(-c3csc(Nc4cc5ccccc5cn4)n3)s2)nc1 [compound 34, Isoquinolin-3-yl-[4-(5-pyridin-2-yl-thiophen-2-yl)-thiazol-2-yl]-amine] | 2.25 | 1.61 | 2.16 | 2.01 | > 32 | 246 to 248 | > 32 | 5.65 | 5.79 | 5.67 | 5.70 | – | – |
| c1ccc(-c2cc(-c3csc(Nc4ccccn4)n3)on2)cc1 [compound 42, [4-(3-Phenylisoxazol-5-yl)-thiazol-2-yl]pyridin-2-yl-amine] | 0.629 | 0.599 | 0.585 | 0.604 | > 32 | 211 to 215 | > 32 | 6.20 | 6.22 | 6.23 | 6.22 | – | – |
| Cc1cccc(Nc2nc(-c3cc(-c4ccccc4)no3)cs2)n1 [compound 44, (6-Methylpyridin-2-yl)-[4-(3-phenylisoxazol-5-yl)-thiazol-2-yl]-amine] | 0.926 | 0.733 | 0.794 | 0.818 | > 32 | 291 to 293 | > 32 | 6.03 | 6.13 | 6.10 | 6.09 | – | – |
| c1ccc(-c2cc(-c3csc(Nc4ccncc4)n3)on2)cc1 [compound 45, [4-(3-Phenylisoxazol-5-yl)-thiazol-2-yl]-pyridin-4-yl-amine] | 3.16 | 3.25 | 6.83 | 4.42 | > 32 | 269 to 270 | > 32 | 5.50 | 5.49 | 5.17 | 5.38 | – | – |
| COc1ccc(NC(=O)c2csc(Nc3ccc(C)cn3)n2)cc1OC [compound 46, 2-(5-Methylpyridin-2-ylamino)-thiazole-4-carboxylic acid (3,4-dimethoxyphenyl)-amide] | 3.19 | 1.93 | 2.21 | 2.44 | > 32 | 212 to 214 | > 32 | 5.50 | 5.72 | 5.66 | 5.62 | – | – |
| COc1ccc(-c2csc(NC(=O)c3cc4ccccc4cn3)n2)cc1OC [compound 47, Isoquinoline-3-carboxylic acid [4-(3,4-dimethoxyphenyl)-thiazol-2-yl]amide] | 9.81 | 3.93 | 10.8 | 8.18 | > 10 | 228 to 230 | > 10 | 5.01 | 5.41 | 4.97 | 5.13 | – | – |
| COc1ccc(-c2csc(C(=O)Nc3cc4ccccc4cn3)n2)cc1OC [compound 48, 4-(3,4-dimethoxyphenyl)-thiazole-2-carboxylic acid isoquinolin-3-ylamide] | > 10 | > 10 | > 10 | > 10 | > 10 | 196 to 202 | > 10 | >4.5 | >4.5 | >4.5 | – | – | – |
| COc1ccc(-c2csc(N(C)c3cc4ccccc4cn3)n2)cc1OC [compound 49, [4-(3,4-dimethoxyphenyl)-thiazol-2-yl]-isoquinolin-3-yl-methyl-amine] | 0.152 | 0.196 | 0.083 | 0.144 | > 10 | 165 to 166 | > 10 | 6.82 | 6.71 | 7.08 | 6.87 | – | – |
| COc1ccc(-c2csc(N(C(C)=O)c3cc4ccccc4cn3)n2)cc1OC [compound 50, N-[4-(3,4-dimethoxyphenyl)-thiazol-2-yl]-N-isoquinolin-3-yl-acetamide] | 0.091 | 0.089 | 0.065 | 0.082 | > 10 | 164 to 165 | > 10 | 7.04 | 7.05 | 7.19 | 7.09 | – | – |
